Data taken from US12310975B2, “Modulators of BCL6 proteolysis and associated methods of use” (Arvinas Operations, Inc., priority 2019, dated 2025).

Assays:
BCL6 [1] = biological target: T1, BCL6 (Homo sapiens (Human), UniProt P41182); assay: BCL6 TR-FRET assay (BCL6-Avitag-Biotin / BCoR-Cy5 peptide); type: binding; details: for IC50: read-out: IC50
In short: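 TR-FRET displacement assay: biotinylated His-SUMO-BCL6-Avitag (2 nM) pre-incubated 30 min at room temperature with compound (12-point 3-fold titration), then BCoR-Cy5 peptide (100 nM) and Eu-streptavidin (2 nM) added. Buffer: 50 mM HEPES pH 7.5, 125 mM NaCl, 0.01% Triton X, glutathione or DTT, 0.03% BSA. Read after 2 h.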

BCL6 [2] = biological target: T1, BCL6; assay: Immunofluorescence high content imaging of BCL6 degradation in T47D cells; type: cell-based; details: for Dmax: T47D
In short: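 Following a 3-day incubation with serially diluted bifunctional compounds (final top 0.1 or 1 μM), T47D cells were PFA-fixed and immunostained for BCL6. Nuclear BCL6 signal was captured on a high-content imager.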

Row | SMILES | EC50 (BCL6 [1]) | IC50 (BCL6 [2]) | Dmax (BCL6 [2]) | IC50 (BCL6 [1])
1 | CNC(=O)COc1cc2cc(Nc3nc(N4CCC[C@H](COc5ccc6c(c5)C(=O)N(C5CCC(=O)NC5=O)C6=O)C4)ncc3Cl)ccc2n(C)c1=O (stereo partly drawn) [compound 237, 2-((6-((5-chloro-2-((3S)-3-(((2-(2,6-dioxopiperidin-3-yl)-1,3-dioxoisoindolin-5-yl)oxy)methyl)piperidin-1-yl)pyrimidin-4-yl)amino)-1-methyl-2-oxo-1,2-dihydroquinolin-3-yl)oxy)-N-methylacetamide] | 10 to 50 nM | 10 to 50 nM | < 50% | 
2 | CNC(=O)COc1cc2cc(Nc3nc(N4CCC(O[C@H]5C[C@H](COc6cccc7c6C(=O)N(C6CCC(=O)NC6=O)C7=O)N(C)C5)CC4)ncc3Cl)ccc2n(C(C)C)c1=O (stereo partly drawn) [compound 471, 2-[(6-{[5-chloro-2-(4-{[(3S,5R)-5-({[2-(2,6-dioxopiperidin-3-yl)-1,3-dioxo-2,3-dihydro-1H-isoindol-4-yl]oxy}methyl)-1-methylpyrrolidin-3-yl]oxy}piperidin-1-yl)pyrimidin-4-yl]amino}-2-oxo-1-(propan-2-yl)-1,2-dihydroquinolin-3-yl)oxy]-N-methylacetamide] |  |  | < 50% | 0.01 to 0.05 µM
3 | CNC(=O)COc1cc2cc(Nc3nc(N4CCN(CC(C)(C)N5CCN(c6ccc7c(c6)C(=O)N(C6CCC(=O)NC6=O)C7=O)CC5)CC4)ncc3Cl)ccc2n(C)c1=O (stereo not shown) [compound 280, 2-{[6-({5-chloro-2-[4-(2-{4-[2-(2,6-dioxopiperidin-3-yl)-1,3-dioxo-2,3-dihydro-1H-isoindol-5-yl]piperazin-1-yl}-2-methylpropyl)piperazin-1-yl]pyrimidin-4-yl}amino)-1-methyl-2-oxo-1,2-dihydroquinolin-3-yl]oxy}-N-methylacetamide] | 10 to 50 nM | 10 to 50 nM | 50 to 70% | 
4 | CNC(=O)COc1cc2cc(Nc3nc(N4CCC[C@H](COc5cccc6c5C(=O)N(C5CCC(=O)NC5=O)C6=O)C4)ncc3Cl)ccc2n(CC2COC2)c1=O (stereo partly drawn) [compound 491, 2-{[6-({5-chloro-2-[(3S)-3-({[2-(2,6-dioxopiperidin-3-yl)-1,3-dioxo-2,3-dihydro-1H-isoindol-4-yl]oxy}methyl)piperidin-1-yl]pyrimidin-4-yl}amino)-1-[(oxetan-3-yl)methyl]-2-oxo-1,2-dihydroquinolin-3-yl]oxy}-N-methylacetamide] |  |  | ≥ 70% | ≥ 0.1 µM
